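Protocol summary: plate cells (96-well), add compound at 5 concentrations, incubate 48 h, interpolate endpoints linearly. The concentration for 50% growth inhibition is given as GI50.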 Calls of active or inactive are those of the source. No stated cut-off is given here; in the data, active = GI50 up to about 1.1 µM and inactive = higher.
What was measured:
Test in all cases: DTP human tumour cell line panel, 48 h
786-0 = tested on: 786-0
COLO 205 = tested on: COLO 205
EKVX = tested on: EKVX
HOP-62 = tested on: HOP-62
IGROV-1 = tested on: IGROV-1
MCF7 = tested on: MCF7
MDA-MB-435 = tested on: MDA-MB-435
MDA-N = tested on: MDA-N
Malme-3M = tested on: Malme-3M
OVCAR-3 = tested on: OVCAR-3
OVCAR-4 = tested on: OVCAR-4
OVCAR-8 = tested on: OVCAR-8
SK-MEL-5 = tested on: SK-MEL-5
SK-OV-3 = tested on: SK-OV-3
SNB-75 = tested on: SNB-75
SW-620 = tested on: SW-620
T47D = tested on: T47D
TK-10 = tested on: TK-10
UACC-257 = tested on: UACC-257
UACC-62 = tested on: UACC-62

Compound | GI50 (786-0) | GI50 (COLO 205) | GI50 (EKVX) | GI50 (HOP-62) | GI50 (IGROV-1) | GI50 (MCF7) | GI50 (MDA-MB-435) | GI50 (MDA-N) | GI50 (Malme-3M) | GI50 (OVCAR-3) | GI50 (OVCAR-4) | GI50 (OVCAR-8) | GI50 (SK-MEL-5) | GI50 (SK-OV-3) | GI50 (SNB-75) | GI50 (SW-620) | GI50 (T47D) | GI50 (TK-10) | GI50 (UACC-257) | GI50 (UACC-62)
C/C=C\C(CC(=O)NCCC1CN(S(=O)(=O)c2ccc(C)cc2)c2ccccc21)CC(=O)OC (stereo unspecified) | > 100 µM (inactive) | > 100 µM (inactive) | > 100 µM (inactive) | > 100 µM (inactive) | > 100 µM (inactive) | > 100 µM (inactive) | > 100 µM (inactive) | > 100 µM (inactive) | > 100 µM (inactive) | > 100 µM (inactive) | > 100 µM (inactive) | > 100 µM (inactive) | > 100 µM (inactive) | > 100 µM (inactive) | > 100 µM (inactive) | > 100 µM (inactive) | > 100 µM (inactive) | > 100 µM (inactive) | > 100 µM (inactive) | > 100 µM (inactive)
C=CCOc1cc(NC(=S)c2ccoc2C)ccc1OC | > 100 µM (inactive) | > 100 µM (inactive) | > 100 µM (inactive) | – | > 100 µM (inactive) | > 100 µM (inactive) | > 100 µM (inactive) | > 100 µM (inactive) | > 100 µM (inactive) | > 100 µM (inactive) | > 100 µM (inactive) | > 100 µM (inactive) | > 100 µM (inactive) | > 100 µM (inactive) | 24.1 µM (inactive) | > 100 µM (inactive) | > 100 µM (inactive) | – | > 100 µM (inactive) | > 100 µM (inactive)
Nc1ncnc2c1ncn2[C@H]1CC[C@@H](NO)C1 | > 100 µM (inactive) | > 100 µM (inactive) | > 100 µM (inactive) | > 100 µM (inactive) | > 100 µM (inactive) | > 100 µM (inactive) | > 100 µM (inactive) | > 100 µM (inactive) | > 100 µM (inactive) | > 100 µM (inactive) | > 100 µM (inactive) | > 100 µM (inactive) | > 100 µM (inactive) | > 100 µM (inactive) | > 100 µM (inactive) | > 100 µM (inactive) | > 100 µM (inactive) | > 100 µM (inactive) | > 100 µM (inactive) | > 100 µM (inactive)
Cc1nc2c(sc3nc4ccccc4n32)c(=O)[nH]1 | > 100 µM (inactive) | > 100 µM (inactive) | > 100 µM (inactive) | > 100 µM (inactive) | > 100 µM (inactive) | > 100 µM (inactive) | > 100 µM (inactive) | > 100 µM (inactive) | > 100 µM (inactive) | > 100 µM (inactive) | > 100 µM (inactive) | 42.5 µM (inactive) | > 100 µM (inactive) | 73.1 µM (inactive) | > 100 µM (inactive) | > 100 µM (inactive) | > 100 µM (inactive) | > 100 µM (inactive) | > 100 µM (inactive) | > 100 µM (inactive)
COC(=O)C1Cc2c(C)cccc2C1=O (stereo unspecified) | > 100 µM (inactive) | > 100 µM (inactive) | > 100 µM (inactive) | > 100 µM (inactive) | > 100 µM (inactive) | > 100 µM (inactive) | > 100 µM (inactive) | > 100 µM (inactive) | > 100 µM (inactive) | > 100 µM (inactive) | > 100 µM (inactive) | > 100 µM (inactive) | > 100 µM (inactive) | > 100 µM (inactive) | > 100 µM (inactive) | > 100 µM (inactive) | > 100 µM (inactive) | > 100 µM (inactive) | > 100 µM (inactive) | > 100 µM (inactive)
O=C1c2ccccc2-n2c1nc1ccccc1c2=O [TRYPTANTHRIN] | 28.2 µM (inactive) | 12.8 µM (inactive) | 13.4 µM (inactive) | 12.1 µM (inactive) | 23 µM (inactive) | 7.19 µM (inactive) | 1.85 µM (inactive) | 18.2 µM (inactive) | 13.4 µM (inactive) | 4.54 µM (inactive) | 19.1 µM (inactive) | 5.79 µM (inactive) | 13.1 µM (inactive) | > 100 µM (inactive) | 30.8 µM (inactive) | 20.8 µM (inactive) | 8.87 µM (inactive) | > 43.3 µM (inactive) | 3.02 µM (inactive) | 3.69 µM (inactive)
C[C@@H]1CC[C@@]2(C)C(C(=O)O)=CCCC2[C@@]1(C)CC(=O)c1ccoc1 (stereo partly specified) | > 25 µM (inactive) | > 25 µM (inactive) | > 25 µM (inactive) | – | > 25 µM (inactive) | > 25 µM (inactive) | > 25 µM (inactive) | > 25 µM (inactive) | – | > 25 µM (inactive) | > 25 µM (inactive) | > 25 µM (inactive) | > 25 µM (inactive) | > 25 µM (inactive) | > 25 µM (inactive) | > 25 µM (inactive) | > 25 µM (inactive) | > 25 µM (inactive) | > 25 µM (inactive) | > 25 µM (inactive)
N=C(N)NCCCCCCC(=O)NC(O)C(=O)NCCCCNCCCN (stereo unspecified) | 3070 µM (inactive) | 600 µM (inactive) | 643 µM (inactive) | 726 µM (inactive) | 665 µM (inactive) | 745 µM (inactive) | > 750 µM (inactive) | 2360 µM (inactive) | 582 µM (inactive) | 474 µM (inactive) | 550 µM (inactive) | 641 µM (inactive) | > 750 µM (inactive) | > 750 µM (inactive) | 335 µM (inactive) | > 750 µM (inactive) | > 750 µM (inactive) | > 750 µM (inactive) | > 750 µM (inactive) | 711 µM (inactive)
CN(C)CCCNc1c2c(=O)n(C)c(=O)nc-2n(C)c2ccccc12 | 5.68 µM (inactive) | 3.21 µM (inactive) | 6.43 µM (inactive) | 3.75 µM (inactive) | 15.6 µM (inactive) | 3.82 µM (inactive) | 3.94 µM (inactive) | 4.2 µM (inactive) | 3.11 µM (inactive) | 1.25 µM (inactive) | 4.72 µM (inactive) | 4.83 µM (inactive) | 6.21 µM (inactive) | 6.24 µM (inactive) | 5.15 µM (inactive) | 3.7 µM (inactive) | 5.12 µM (inactive) | 5.26 µM (inactive) | 4.86 µM (inactive) | 5.22 µM (inactive)
O=C1CC=C2C3CC4N(CCC45c4ccccc4N1C25)C/C3=C\CO (stereo unspecified) | > 100 µM (inactive) | > 100 µM (inactive) | > 100 µM (inactive) | – | > 100 µM (inactive) | > 100 µM (inactive) | > 100 µM (inactive) | > 100 µM (inactive) | > 100 µM (inactive) | > 100 µM (inactive) | > 100 µM (inactive) | > 100 µM (inactive) | > 100 µM (inactive) | > 100 µM (inactive) | > 100 µM (inactive) | > 100 µM (inactive) | > 100 µM (inactive) | > 100 µM (inactive) | > 100 µM (inactive) | > 100 µM (inactive)
CCOC(C/N=c1/nc(N(C)C)ss1)OCC | 17.7 µM (inactive) | 0.986 µM (active) | 34.1 µM (inactive) | 65.6 µM (inactive) | > 27.5 µM (inactive) | 2.5 µM (inactive) | 1.91 µM (inactive) | 3.56 µM (inactive) | 7.71 µM (inactive) | 9.89 µM (inactive) | 16.6 µM (inactive) | 28.1 µM (inactive) | 0.832 µM (active) | > 100 µM (inactive) | 27.6 µM (inactive) | 2.6 µM (inactive) | 23.4 µM (inactive) | 33.3 µM (inactive) | 26.4 µM (inactive) | 1.17 µM (inactive)
O=C1CCCc2cc3c(cc21)CC1(C3)Cc2ccc3c(c2C1)C(=O)CCC3 (stereo unspecified) | 30.7 µM (inactive) | 14.4 µM (inactive) | 46.7 µM (inactive) | 67.9 µM (inactive) | 20.5 µM (inactive) | 12.2 µM (inactive) | 4.91 µM (inactive) | 5.18 µM (inactive) | 9.4 µM (inactive) | 15.9 µM (inactive) | 13.9 µM (inactive) | 16.4 µM (inactive) | 2.2 µM (inactive) | > 100 µM (inactive) | 15.5 µM (inactive) | 15.6 µM (inactive) | 24.1 µM (inactive) | 23.9 µM (inactive) | 5.24 µM (inactive) | –
COc1cc2c(cc1O)C1Cc3ccc(OC)c(O)c3C[N+]1(C)CC2 (stereo unspecified) | > 100 µM (inactive) | > 100 µM (inactive) | > 100 µM (inactive) | > 100 µM (inactive) | > 100 µM (inactive) | > 100 µM (inactive) | > 100 µM (inactive) | > 100 µM (inactive) | > 100 µM (inactive) | – | > 100 µM (inactive) | > 100 µM (inactive) | > 100 µM (inactive) | > 100 µM (inactive) | > 100 µM (inactive) | > 100 µM (inactive) | > 100 µM (inactive) | > 100 µM (inactive) | – | > 100 µM (inactive)
CCOC(=O)CCC(NC(=O)OCc1ccccc1)C(=O)NC(CCC(=O)OCC)C(=O)NC(CCC(=O)OCC)C(=O)NC(CCC(=O)OCC)C(=O)NC(CCC(=O)OCC)C(=O)OCC (stereo unspecified) | > 100 µM (inactive) | > 100 µM (inactive) | > 100 µM (inactive) | > 100 µM (inactive) | > 100 µM (inactive) | > 100 µM (inactive) | > 100 µM (inactive) | > 100 µM (inactive) | > 100 µM (inactive) | – | > 100 µM (inactive) | > 100 µM (inactive) | > 100 µM (inactive) | > 100 µM (inactive) | > 100 µM (inactive) | > 100 µM (inactive) | > 100 µM (inactive) | > 100 µM (inactive) | > 100 µM (inactive) | > 100 µM (inactive)
